“And” between values parts separate entries of the source, which are not always exact repeats. Equal entries are not always repeated. The source made the active and inactive calls. No rule for the calls is given here.
Tested on: rodent lifetime carcinogenesis bioassay, tumor incidence TD50
Assay: carcinogenic potency in animals, long-term in vivo studies, CPDB compilation (AID 1745844)

CC(CN1CC(=O)NC(=O)C1)N1CC(=O)NC(=O)C1 (stereo unspecified)
6.48 mg/kg/day: TD50 (rat, strain Sprague-Dawley, females, i.p., site: any site (literature study), lesion: several types, types named in the paper, dosed 52 weeks, study length 81 weeks)
23.7 mg/kg/day and 25.9 mg/kg/day: TD50 (mouse, strain B6C3F1, females, i.p., site: all sites, lesion: leukemia + lymphoma, dosed 52 weeks, study length 86 weeks)
16.8 mg/kg/day: TD50 (mouse, strain B6C3F1, females, i.p., site: any site (literature study), lesion: several types, types named in the paper, dosed 52 weeks, study length 86 weeks)
105 mg/kg/day: TD50 (rat, strain Sprague-Dawley, males, i.p., site: liver, lesion: hepatocellular adenoma + hepatocellular carcinoma + neoplastic nodule, dosed 52 weeks, study length 81 weeks)
23.7 mg/kg/day: TD50 (mouse, strain B6C3F1, females, i.p., site: all sites, lesion: leukemia + lymphoma, histiocytic type + lymphoma, dosed 52 weeks, study length 86 weeks)
active: TD50 (mouse, strain B6C3F1, females, i.p., site: all sites, lesion: lymphoma, histiocytic type, dosed 52 weeks, study length 86 weeks) 53.7 mg/kg/day | TD50 (rat, strain Sprague-Dawley, females, i.p., site: uterus, lesion: adenocarcinoma, NOS, dosed 52 weeks, study length 79 weeks) 10.7 mg/kg/day | TD50 (rat, strain Sprague-Dawley, females, i.p., site: uterus, lesion: adenocarcinoma, NOS, dosed 52 weeks, study length 81 weeks) 11.3 mg/kg/day
212 mg/kg/day: TD50 (mouse, strain B6C3F1, males, i.p., site: lung, lesion: alveolar/bronchiolar adenoma + alveolar/bronchiolar carcinoma, dosed 52 weeks, study length 86 weeks)
inactive: TD50 (mouse, strain B6C3F1, males, i.p., site: any site (literature study), lesion: several types, types named in the paper, dosed 52 weeks, study length 86 weeks) 262 mg/kg/day | TD50 (rat, strain Sprague-Dawley, males, i.p., site: any site (literature study), lesion: several types, types named in the paper, dosed 52 weeks, study length 81 weeks) 9.55 mg/kg/day

O=C(O)C1=NN(c2ccc(S(=O)(=O)O)cc2)C(=O)C1N=Nc1ccc(S(=O)(=O)O)cc1 (stereo unspecified)
inactive: TD50 (mouse, strain Charles River CD1, females, in feed, site: all sites, lesion: malignant lymphoma, lymphocytic type, dosed 104 weeks, study length 104 weeks) 1430 mg/kg/day | carcinogen call (mouse, strain Charles River CD1, females, in feed, site: any site (literature study), lesion: benign tumor, dosed 104 weeks, study length 104 weeks) negative | TD50 (mouse, strain Charles River CD1, females, in feed, site: any site (literature study), lesion: malignant tumor, dosed 104 weeks, study length 104 weeks) 1560 mg/kg/day | carcinogen call (mouse, strain Charles River CD1, females, in feed, site: liver, lesion: hepatocellular adenocarcinoma, dosed 104 weeks, study length 104 weeks) negative | TD50 (mouse, strain Charles River CD1, females, in feed, site: liver, lesion: hepatocellular adenoma, dosed 104 weeks, study length 104 weeks) 200000 mg/kg/day | carcinogen call (mouse, strain Charles River CD1, females, in feed, site: lung, lesion: alveolar/bronchiolar adenocarcinoma, dosed 104 weeks, study length 104 weeks) negative | carcinogen call (mouse, strain Charles River CD1, females, in feed, site: lung, lesion: alveolar/bronchiolar adenoma, dosed 104 weeks, study length 104 weeks) negative | TD50 (mouse, strain Charles River CD1, males, in feed, site: all sites, lesion: malignant lymphoma, lymphocytic type, dosed 104 weeks, study length 104 weeks) 11800 mg/kg/day | TD50 (mouse, strain Charles River CD1, males, in feed, site: any site (literature study), lesion: benign tumor, dosed 104 weeks, study length 104 weeks) 388 mg/kg/day | TD50 (mouse, strain Charles River CD1, males, in feed, site: any site (literature study), lesion: malignant tumor, dosed 104 weeks, study length 104 weeks) 1810 mg/kg/day | TD50 (mouse, strain Charles River CD1, males, in feed, site: liver, lesion: hepatocellular adenocarcinoma, dosed 104 weeks, study length 104 weeks) 61100 mg/kg/day | TD50 (mouse, strain Charles River CD1, males, in feed, site: liver, lesion: hepatocellular adenoma, dosed 104 weeks, study length 104 weeks) 2150 mg/kg/day | carcinogen call (mouse, strain Charles River CD1, males, in feed, site: lung, lesion: alveolar/bronchiolar adenocarcinoma, dosed 104 weeks, study length 104 weeks) negative | TD50 (mouse, strain Charles River CD1, males, in feed, site: lung, lesion: alveolar/bronchiolar adenoma, dosed 104 weeks, study length 104 weeks) 42500 mg/kg/day | carcinogen call (rat, strain F344/DuCrj, females, in drinking water, site: any site (literature study), lesion: one or several types, types not named, dosed 104 weeks, study length 112 weeks) negative | carcinogen call (rat, strain F344/DuCrj, females, in drinking water, site: liver, lesion: neoplastic nodule, dosed 104 weeks, study length 112 weeks) negative | TD50 (rat, strain F344/DuCrj, females, in drinking water, site: uterus, lesion: endometrial stromal polyp, dosed 104 weeks, study length 112 weeks) 5780 mg/kg/day | TD50 (rat, strain F344/DuCrj, males, in drinking water, site: abdominal cavity, lesion: mesothelioma, dosed 104 weeks, study length 112 weeks) 2820 mg/kg/day | carcinogen call (rat, strain F344/DuCrj, males, in drinking water, site: any site (literature study), lesion: one or several types, types not named, dosed 104 weeks, study length 112 weeks) negative | carcinogen call (rat, strain F344/DuCrj, males, in drinking water, site: liver, lesion: hepatocellular carcinoma, dosed 104 weeks, study length 112 weeks) negative | carcinogen call (rat, strain F344/DuCrj, males, in drinking water, site: liver, lesion: neoplastic nodule, dosed 104 weeks, study length 112 weeks) negative | carcinogen call (rat, strain Not specified, females, in feed, site: any site (literature study), lesion: several types, types named in the paper, dosed 64 weeks, study length 64 weeks) negative | carcinogen call (rat, strain Not specified, females, in feed, site: liver, lesion: one or several types, types not named, dosed 64 weeks, study length 64 weeks) negative | carcinogen call (rat, strain Not specified, males, in feed, site: any site (literature study), lesion: several types, types named in the paper, dosed 64 weeks, study length 64 weeks) negative | carcinogen call (rat, strain Not specified, males, in feed, site: liver, lesion: one or several types, types not named, dosed 64 weeks, study length 64 weeks) negative | carcinogen call (rat, strain Osborne-Mendel, both sexes, in feed, site: any site (literature study), lesion: malignant tumor, dosed 104 weeks, study length 104 weeks) negative | carcinogen call (rat, strain Osborne-Mendel, both sexes, in feed, site: any site (literature study), lesion: several types, types named in the paper, dosed 104 weeks, study length 104 weeks) negative | TD50 (rat, strain Osborne-Mendel, both sexes, in feed, site: liver, lesion: adenoma, dosed 104 weeks, study length 104 weeks) 231000 mg/kg/day

CC(=O)CNCC(O)C(O)N=O (stereo unspecified)
20.4 mg/kg/day: TD50 (hamster, strain Syrian Golden, females, by gavage, site: liver, lesion: hepatocellular carcinoma, dosed 35 weeks, study length 55 weeks) | TD50 (hamster, strain Syrian Golden, females, by gavage, site: lung, lesion: carcinoma, dosed 35 weeks, study length 55 weeks)
inactive: TD50 (rat, strain Fischer 344, females, in drinking water, site: liver, lesion: hepatocellular carcinoma, dosed 31 weeks, study length 55 weeks) 1.3 mg/kg/day
9.92 mg/kg/day: TD50 (hamster, strain Syrian Golden, females, by gavage, site: liver, lesion: hepatocellular adenoma, dosed 35 weeks, study length 55 weeks) | TD50 (hamster, strain Syrian Golden, females, by gavage, site: liver, lesion: several types, types named in the paper, dosed 35 weeks, study length 55 weeks)
active: TD50 (hamster, strain Syrian Golden, females, by gavage, site: forestomach, lesion: several types, types named in the paper, dosed 35 weeks, study length 55 weeks) 0.754 mg/kg/day | TD50 (hamster, strain Syrian Golden, females, by gavage, site: forestomach, lesion: squamous-cell papilloma, dosed 35 weeks, study length 55 weeks) 0.868 mg/kg/day | TD50 (hamster, strain Syrian Golden, females, by gavage, site: pancreatic duct, lesion: several types, types named in the paper, dosed 35 weeks, study length 55 weeks) 3.63 mg/kg/day | TD50 (rat, strain Fischer 344, females, in drinking water, site: esophagus, lesion: carcinoma, dosed 31 weeks, study length 55 weeks) 0.0637 mg/kg/day | TD50 (rat, strain Fischer 344, females, in drinking water, site: esophagus, lesion: several types, types named in the paper, dosed 31 weeks, study length 55 weeks) 0.0352 mg/kg/day | TD50 (rat, strain Fischer 344, females, in drinking water, site: forestomach, lesion: carcinoma, dosed 31 weeks, study length 55 weeks) 0.155 mg/kg/day | TD50 (rat, strain Fischer 344, females, in drinking water, site: forestomach, lesion: several types, types named in the paper, dosed 31 weeks, study length 55 weeks) 0.0482 mg/kg/day | TD50 (rat, strain Fischer 344, females, in drinking water, site: tongue, lesion: carcinoma, dosed 31 weeks, study length 55 weeks) 0.0964 mg/kg/day | TD50 (rat, strain Fischer 344, females, in drinking water, site: tongue, lesion: several types, types named in the paper, dosed 31 weeks, study length 55 weeks) 0.0555 mg/kg/day

N
26700 mg/kg/day: TD50 (mouse, strain Swiss, males, in drinking water, site: liver, lesion: several types, types named in the paper, dosed 120 weeks, study length 124 weeks)
inactive: carcinogen call (mouse, strain C3H (MTV+), females, in drinking water, site: mammary gland, lesion: adenocarcinoma, dosed 104 weeks, study length 104 weeks) negative | carcinogen call (mouse, strain Swiss, females, in drinking water, site: lung, lesion: several types, types named in the paper, dosed 119 weeks, study length 121 weeks) negative | TD50 (mouse, strain Swiss, males, in drinking water, site: lung, lesion: adenocarcinoma, dosed 120 weeks, study length 124 weeks) 7330 mg/kg/day | TD50 (mouse, strain Swiss, males, in drinking water, site: lung, lesion: several types, types named in the paper, dosed 120 weeks, study length 124 weeks) 15300 mg/kg/day

C=C/C1=C/C(C)C(C)(OC(C)=O)C(=O)OCC2=CC[N+]3(C)CCC(OC1=O)C23O (stereo unspecified)
active: TD50 (rat, strain ACI, both sexes, in drinking water, site: liver, lesion: hemangioendothelial sarcoma, dosed 48 weeks, study length 68 weeks) 3.01 mg/kg/day | TD50 (rat, strain ACI, both sexes, in drinking water, site: liver, lesion: neoplastic nodule, dosed 48 weeks, study length 68 weeks) 0.697 mg/kg/day | TD50 (rat, strain ACI, both sexes, in drinking water, site: liver, lesion: several types, types named in the paper, dosed 48 weeks, study length 68 weeks) 0.5 mg/kg/day

— PubChem BioAssay AID1745844 (Carcinogenic Potency Database (CPDB), 2022)
